Assay [1] has as its target T1, BACE (Homo sapiens, UniProt P56817).
T1 construct: Cells stably expressing Amyloid Precursor Protein (APP) were plated at a density of 40K cells/well in 96 well plates; endogenous in cells
In words: In vitro enzymatic BACE FRET assay (Enzyme Assay). Type of assay: biochemical. The conditions noted are these: pH 4.2, enzyme 0.2 nM, FRET substrate 50 nM. How it is done:
In Vitro Enzymatic BACE FRET (Fluorescence Resonance Energy Transfer) Assay (Enzyme Assay)
Assay buffer is 0.05 M acetate, pH 4.2, 10% DMSO final, 100 uM genapol (which is a nonionic detergent, below it's Critical Micelle Concentration). Enzyme (0.2 nM) is pre-incubated for one hour with inhibitors added in 1 uL of DMSO. Then the assay is started by the addition of FRET substrate (50 nM) and incubated for one hour. The FRET assay is terminated with by addition of Tris buffer, which raises the pH to neutrality, and the fluorescence is determined The FRET substrate is a peptide with commercially available fluorophore and quencher, on opposite sides of the BACE cleavage site. Proteolytic cleavage of the FRET substrate releases quenching of fluorescence (excitation 488 nm and […]).

The target in assay [2] is T1, BACE. In words: BACE cell-based assay (Cell Assay), inhibition of Aβ40 by sandwich ELISA. As to conditions: Aβ40 in conditioned medium of cells stably expressing APP, 24 h incubation. How it is done:
BACE Cell-Based Assay (Cell Assay)
The cell-based assay measures inhibition or reduction of Aβ40 in conditioned medium of test compound treated cells expressing amyloid precursor protein.
Cells stably expressing Amyloid Precursor Protein (APP) were plated at a density of 40K cells/well in 96 well plates (Costar). The cells were cultivated for 24 hours at 37° C. and 5% CO2 in DMEM supplemented with 10% FBS. The test compounds were then added to cells in 10-point dose response concentrations with the starting concentration being either 100 μM or 10 μM. The compounds were diluted from stock solutions in DMSO and the final DMSO concentration of the test compounds on cells was 0.1%. After 24 h of incubation with the test compounds the supernatant conditioned media was collected and the Aβ40 levels were determined using a sandwich ELISA. The IC50 of the compound was calculated from the percent of control or percent inhibition of Aβ40 as a function of the concentration of the test compound.
The sandwich ELISA to detect Aβ40 was performed in 96 well microtiter plates, which were pre-treated with goat anti-rabbit IgG (Pierce). The capture and detecting antibody pair that were used to detect Aβ40 from cell supernatants were affinity purified pAb40 (Biosource) and biotinylated 6E10 (Signet Labs Inc.), respectively. The optimal concentration for the pAb40 antibody was 3 μg/ml in Superblock/TBS (Pierce) that was supplemented with 0.05% Tween 20 (Sigma). Optimal concentration for the detection antibody 6E10-biotinylated was 0.5 μg/ml in Superblock/TBS (Pierce) that had been supplemented with 2% normal goat serum and 2% normal mouse serum.
Cellular supernatants were incubated with the capture antibody for 3 h at 4° C., followed by 3 wash steps in TBS-tween (0.05%). The detecting antibody incubation was for 2 h at 4° C., again followed by the wash steps as described previously. The final readout of the ELISA is Time-Resolved Fluorescence (counts per minute) using Delfia reagents Streptavidin-Europium and Enhancement solutions (Perkin Elmer) and the Victor 2 multilabel counter (Perkin Elmer).
In general terms: An ELISA detects its analyte on a solid surface through an enzyme-linked reagent.

The structures appear in SMILES notation.

The record followed here is patent US7951838B2, “Substituted spirocyclic chromanamine compounds as Beta-Secretase modulators and methods of use” (Amgen Inc., priority 2007, dated 2011).

T1 sequence (P56817 46-501): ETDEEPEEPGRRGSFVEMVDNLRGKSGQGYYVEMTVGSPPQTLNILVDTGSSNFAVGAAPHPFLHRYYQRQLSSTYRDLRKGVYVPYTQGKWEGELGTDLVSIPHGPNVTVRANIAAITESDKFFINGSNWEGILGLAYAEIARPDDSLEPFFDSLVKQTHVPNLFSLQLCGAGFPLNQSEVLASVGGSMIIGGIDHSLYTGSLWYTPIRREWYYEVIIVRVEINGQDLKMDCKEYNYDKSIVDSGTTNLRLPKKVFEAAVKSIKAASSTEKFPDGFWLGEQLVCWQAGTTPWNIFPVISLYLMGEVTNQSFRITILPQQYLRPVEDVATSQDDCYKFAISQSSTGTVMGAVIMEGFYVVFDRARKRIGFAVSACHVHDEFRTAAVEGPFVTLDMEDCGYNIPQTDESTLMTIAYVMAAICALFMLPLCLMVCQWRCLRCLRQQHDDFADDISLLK

Usually IC50 stands for the concentration that inhibits the measured activity by half. High values mean a need for much substance, low ones inhibition by little substance. As to `CC(C)(C)Cc1cnc2c(c1)[C@@H](NC[C@@H](O)[C@H](Cc1cc(F)cc(F)c1)Nc1nccn3cnnc13)CC1(CCC1)O2` [Example 21, (2R,3S)-4-(3,5-difluorophenyl)-1-(((4′S)-6′-(2,2-dimethylpropyl)-3′,4′-dihydrospiro[cyclobutane-1,2′-pyrano[2,3-b]pyridin]-4′-yl)amino)-3-([1,2,4]triazolo[4,3-a]pyrazin-8-ylamino)-2-butanol], the IC50 was 0.1 to 1 µM in assay [1] and below 0.1 µM in assay [2].

Consider `O[C@H](CN[C@H]1CC2(CCC2)Oc2ccc(Br)cc21)[C@H](Cc1ccccc1)Nc1nccn2cnnc12` [Example 22, (2R,3S)-1-(((4S)-6-bromo-3,4-dihydrospiro[chromene-2,1′-cyclobutan]-4-yl)amino)-4-phenyl-3-([1,2,4]triazolo[4,3-a]pyrazin-8-ylamino)-2-butanol], for which the IC50 in assay [1] fell in the range of 10 to 25 µM; in assay [2], 5 to 10 µM.

As to `CC(C)(C)Cc1cnc2c(c1)[C@@H](NC[C@@H](O)[C@H](Cc1cc(F)cc(F)c1)Nc1ccnc(Cl)n1)CC1(CCC1)O2` [Example 24, (2R,3S)-3-((2-chloro-4-pyrimidinyl)amino)-4-(3,5-difluorophenyl)-1-(((4′S)-6′-(2,2-dimethylpropyl)-3′,4′-dihydrospiro[cyclobutane-1,2′-pyrano[2,3-b]pyridin]-4′-yl)amino)-2-butanol], the values for the IC50 in assay [1] and in assay [2] were below 0.1 µM and 0.1 to 1 µM, respectively.

In the case of `CC(C)(C)Cc1cnc2c(c1)[C@@H](NC[C@@H](O)[C@H](Cc1cc(F)cc(F)c1)Nc1ncccn1)CC1(CCC1)O2` [Example 25, (2R,3S)-4-(3,5-difluorophenyl)-1-(((4′S)-6′-(2,2-dimethylpropyl)-3′,4′-dihydrospiro[cyclobutane-1,2′-pyrano[2,3-b]pyridin]-4′-yl)amino)-3-(2-pyrimidinylamino)-2-butanol], the IC50 in assay [1] is 0.1 to 1 µM; in assay [2] it was 1 to 5 µM.

Take `CC(C)(C)Cc1cnc2c(c1)[C@@H](NC[C@@H](O)[C@H](Cc1cc(F)cc(F)c1)Nc1ccccc1F)CC1(CCC1)O2` [Example 26, (2R,3S)-4-(3,5-difluorophenyl)-1-(((4′S)-6′-(2,2-dimethylpropyl)-3′,4′-dihydrospiro[cyclobutane-1,2′-pyrano[2,3-b]pyridin]-4′-yl)amino)-3-((2-fluorophenyl)amino)-2-butanol]: the IC50 in assay [1] was in the range of 1 to 5 µM; in assay [2] it was 10 to 25 µM.

Regarding `CCc1ccc2c(c1)[C@@H](NC[C@@H](O)[C@H](Cc1cccc(C#N)c1)Nc1ccccc1F)CC1(CCC1)O2` [Example 27, 3-((2S,3R)-4-(((4S)-6-ethyl-3,4-dihydrospiro[chromene-2,1′-cyclobutan]-4-yl)amino)-2-((2-fluorophenyl)amino)-3-hydroxybutyl)benzonitrile], the IC50 in assay [1] is 1 to 5 µM; in assay [2], 0.1 to 1 µM.

As to `CC(C)(C)Cc1cnc2c(c1)[C@@H](NC[C@@H](O)[C@H](Cc1ccc(F)cc1)Nc1cc(Cl)ncn1)CC1(CCC1)O2` [Example 28, (2R,3S)-3-((6-chloro-4-pyrimidinyl)amino)-1-(((4′S)-6′-(2,2-dimethylpropyl)-3′,4′-dihydrospiro[cyclobutane-1,2′-pyrano[2,3-b]pyridin]-4′-yl)amino)-4-(4-fluorophenyl)-2-butanol], the values for the IC50 in assay [1] and in assay [2] were 1 to 5 µM and 10 to 25 µM, respectively.

For the compound `CC(C)(C)Cc1cnc2c(c1)[C@@H](NC[C@@H](O)[C@H](Cc1ccc(F)cc1)Nc1ccnc(Cl)n1)CC1(CCC1)O2` [Example 29, (2R,3S)-3-((2-chloro-4-pyrimidinyl)amino)-1-(((4′S)-6′-(2,2-dimethylpropyl)-3′,4′-dihydrospiro[cyclobutane-1,2′-pyrano[2,3-b]pyridin]-4′-yl)amino)-4-(4-fluorophenyl)-2-butanol], the figures for the IC50 in assay [1] and in assay [2] were 1 to 5 µM and 10 to 25 µM, respectively.

On to `CC(C)(C)Cc1cnc2c(c1)[C@@H](NC[C@@H](O)[C@H](Cc1ccc(F)cc1)Nc1ncnc3ccsc13)CC1(CCC1)O2` [Example 30, (2R,3S)-1-(((4′S)-6′-(2,2-dimethylpropyl)-3′,4′-dihydrospiro[cyclobutane-1,2′-pyrano[2,3-b]pyridin]-4′-yl)amino)-4-(4-fluorophenyl)-3-(thieno[3,2-d]pyrimidin-4-ylamino)-2-butanol], for which the IC50 lay within 5 to 10 µM in assay [1] and 10 to 25 µM in assay [2].

Turning to `CCc1ccc2c(c1)[C@@H](NC[C@@H](O)[C@H](Cc1ccccc1)Nc1ccccc1F)CC1(CCC1)O2` [Example 31, (2R,3S)-1-(((4S)-6-ethyl-3,4-dihydrospiro[chromene-2,1′-cyclobutan]-4-yl)amino)-3-((2-fluorophenyl)amino)-4-phenyl-2-butanol], the IC50 in assay [1] is 5 to 10 µM; in assay [2] it was 10 to 25 µM.

As to `CCc1ccc2c(c1)[C@@H](NC[C@@H](O)[C@H](Cc1ccccc1)Nc1ccccc1F)CC1(CCCC1)O2` [Example 32, (2R,3S)-1-(((4S)-6-ethyl-3,4-dihydrospiro[chromene-2,1′-cyclopentan]-4-yl)amino)-3-((2-fluorophenyl)amino)-4-phenyl-2-butanol], the IC50 in assay [1] was in the range of 5 to 10 µM; in assay [2], 10 to 25 µM.

Turning to `CCc1ccc2c(c1)[C@@H](NC[C@@H](O)[C@H](Cc1ccccc1)Nc1nccc(C(F)(F)F)n1)CC1(CCC1)O2` [Example 33, (2R,3S)-1-((S)-6-ethyl-2,2-spirocyclobutyl-chroman-4-ylamino)-4-phenyl-3-(4-(trifluoromethyl)pyrimidin-2-ylamino)butan-2-ol], the IC50 in assay [1] and in assay [2] was 10 to 25 µM each time.

Regarding `CSc1nc(Cl)cc(N[C@@H](Cc2ccc(F)cc2)[C@H](O)CN[C@H]2CC3(CCC3)Oc3ncc(CC(C)(C)C)cc32)n1` [Example 34, (2R,3S)-3-((6-chloro-2-(methylthio)-4-pyrimidinyl)amino)-1-(((4′S)-6′-(2,2-dimethylpropyl)-3′,4′-dihydrospiro[cyclobutane-1,2′-pyrano[2,3-b]pyridin]-4′-yl)amino)-4-(4-fluorophenyl)-2-butanol], the results for the IC50 in assay [1] and in assay [2] were 5 to 10 µM and 10 to 25 µM, respectively.

In assay [2], `CCc1ccc2c(c1)[C@@H](NC[C@@H](O)[C@H](Cc1ccccc1)Nc1cnccn1)CC1(CCCC1)O2` [Example 40, (2R,3S)-1-(((4S)-6-ethyl-3,4-dihydrospiro[chromene-2,1′-cyclopentan]-4-yl)amino)-4-phenyl-3-(2-pyrazinylamino)-2-butanol] returned an IC50 of 10 to 25 µM.

In turn, `CCc1ccc2c(c1)[C@@H](NC[C@@H](O)[C@H](Cc1ccccc1)Nc1nc3ccccc3s1)CC1(CCC1)O2` [Example 42, (2R,3S)-3-(1,3-benzothiazol-2-ylamino)-1-(((4S)-6-ethyl-3,4-dihydrospiro[chromene-2,1′-cyclobutan]-4-yl)amino)-4-phenyl-2-butanol] yielded an IC50 in assay [1] of 10 to 25 µM.

On to `CCc1ccc2c(c1)[C@@H](NC[C@@H](O)[C@H](Cc1ccccc1)Nc1ccncc1)CC1(CCC1)O2` [Example 44, (2R,3S)-1-(((4S)-6-ethyl-3,4-dihydrospiro[chromene-2,1′-cyclobutan]-4-yl)amino)-4-phenyl-3-(4-pyridinylamino)-2-butanol], for which the IC50 in assay [2] is 1 to 5 µM.
